IC50 data for 11 molecules are collected here from patent publication US12172995B2, “Substituted indole and indazole compounds” (BRISTOL-MYERS SQUIBB COMPANY, priority 2018, dated 2024).

pIC50: −log10 of the molar value.

What all share (assay type): cell-based
The target in one assay is T1, human TLR9 (Homo sapiens, UniProt Q9NR96).
T1 construct: host or cells: HEK-Blue cells
T1 sequence (Q9NR96 26-1032): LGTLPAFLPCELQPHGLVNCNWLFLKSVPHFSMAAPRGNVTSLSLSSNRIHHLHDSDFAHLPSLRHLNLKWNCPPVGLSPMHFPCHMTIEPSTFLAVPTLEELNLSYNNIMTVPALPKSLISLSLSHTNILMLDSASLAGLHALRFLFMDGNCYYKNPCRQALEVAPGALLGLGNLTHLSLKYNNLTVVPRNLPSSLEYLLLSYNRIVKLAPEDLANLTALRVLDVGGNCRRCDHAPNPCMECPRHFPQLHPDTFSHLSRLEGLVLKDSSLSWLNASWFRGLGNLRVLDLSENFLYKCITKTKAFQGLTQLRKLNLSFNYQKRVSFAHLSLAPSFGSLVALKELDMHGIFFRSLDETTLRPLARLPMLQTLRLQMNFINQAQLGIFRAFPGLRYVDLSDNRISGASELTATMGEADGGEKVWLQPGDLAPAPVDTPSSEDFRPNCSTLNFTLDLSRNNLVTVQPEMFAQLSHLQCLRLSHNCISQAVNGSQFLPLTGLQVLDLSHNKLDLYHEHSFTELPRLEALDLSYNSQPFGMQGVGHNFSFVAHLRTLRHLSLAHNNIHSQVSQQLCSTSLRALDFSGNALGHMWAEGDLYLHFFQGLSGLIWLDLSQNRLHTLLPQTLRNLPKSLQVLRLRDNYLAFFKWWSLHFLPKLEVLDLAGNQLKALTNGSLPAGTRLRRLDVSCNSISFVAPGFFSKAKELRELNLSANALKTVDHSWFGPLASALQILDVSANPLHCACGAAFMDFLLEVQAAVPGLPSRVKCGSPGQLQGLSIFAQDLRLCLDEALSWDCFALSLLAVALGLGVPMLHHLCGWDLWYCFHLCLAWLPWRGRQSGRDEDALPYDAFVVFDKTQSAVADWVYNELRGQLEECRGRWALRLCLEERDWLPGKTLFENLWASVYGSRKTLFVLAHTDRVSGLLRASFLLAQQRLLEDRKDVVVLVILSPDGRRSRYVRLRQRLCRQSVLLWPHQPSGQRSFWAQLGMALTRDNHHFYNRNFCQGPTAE
The experiment in a line: TLR9 inhibition reporter assay (HEK-Blue SEAP). Conditions: HEK-Blue cells overexpressing human TLR9, stimulated with ODN2006 5 nM, 22 hour incubation. An outline of the steps: (§1)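 Percent inhibition reflects SEAP reduction after 22 h at 37° C, relative to agonist-plus-DMSO and known-inhibitor controls. Compounds (0.05 nM to 50 μM) were added 30 min before agonist: TLR9 cells received ODN2006 5 nM, TLR8 cells R848 15.9 μM, TLR7 cells gardiquimod 7.5 μM; human receptor-expressing HEK-Blue reporter lines.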
Background: A reporter such as luciferase makes a cellular process visible.

In the next assay the target is T2, human TLR8 (Homo sapiens, UniProt Q9NR97).
T2 construct: host or cells: HEK-Blue cells
T2 sequence (Q9NR97 27-1041): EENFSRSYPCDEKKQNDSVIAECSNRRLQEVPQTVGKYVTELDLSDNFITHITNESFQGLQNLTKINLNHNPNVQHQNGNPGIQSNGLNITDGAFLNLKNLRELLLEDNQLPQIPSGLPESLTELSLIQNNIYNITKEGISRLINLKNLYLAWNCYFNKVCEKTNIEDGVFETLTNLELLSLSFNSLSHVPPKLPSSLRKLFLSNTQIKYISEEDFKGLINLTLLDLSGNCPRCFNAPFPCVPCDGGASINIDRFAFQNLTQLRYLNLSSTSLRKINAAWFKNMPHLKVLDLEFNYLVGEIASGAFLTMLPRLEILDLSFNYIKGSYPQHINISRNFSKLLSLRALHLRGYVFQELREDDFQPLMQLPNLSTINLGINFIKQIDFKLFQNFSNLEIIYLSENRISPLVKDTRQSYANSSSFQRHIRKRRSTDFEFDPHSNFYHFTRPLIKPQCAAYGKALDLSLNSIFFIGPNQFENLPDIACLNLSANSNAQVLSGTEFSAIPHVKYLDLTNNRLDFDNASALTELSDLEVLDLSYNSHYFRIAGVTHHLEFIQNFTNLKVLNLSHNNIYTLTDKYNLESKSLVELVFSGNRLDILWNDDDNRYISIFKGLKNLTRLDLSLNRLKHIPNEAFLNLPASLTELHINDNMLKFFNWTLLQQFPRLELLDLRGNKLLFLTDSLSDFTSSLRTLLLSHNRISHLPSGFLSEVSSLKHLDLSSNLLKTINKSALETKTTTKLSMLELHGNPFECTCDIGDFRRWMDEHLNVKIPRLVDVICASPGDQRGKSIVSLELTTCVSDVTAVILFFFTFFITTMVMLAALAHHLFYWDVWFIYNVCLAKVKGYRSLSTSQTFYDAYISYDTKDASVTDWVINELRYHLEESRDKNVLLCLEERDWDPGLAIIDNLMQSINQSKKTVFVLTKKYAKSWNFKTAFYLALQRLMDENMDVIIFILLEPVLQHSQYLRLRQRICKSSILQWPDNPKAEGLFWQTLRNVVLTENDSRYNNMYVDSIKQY
The experiment in a line: TLR8 inhibition reporter assay (HEK-Blue SEAP). Conditions: HEK-Blue cells overexpressing human TLR8, stimulated with R848 15.9 μM, 22 hour incubation. An outline of the steps: as §1

In another assay the target is T3, human TLR7 (Homo sapiens, UniProt Q9NYK1).
T3 construct: host or cells: HEK-Blue cells
T3 sequence (Q9NYK1 27-1049): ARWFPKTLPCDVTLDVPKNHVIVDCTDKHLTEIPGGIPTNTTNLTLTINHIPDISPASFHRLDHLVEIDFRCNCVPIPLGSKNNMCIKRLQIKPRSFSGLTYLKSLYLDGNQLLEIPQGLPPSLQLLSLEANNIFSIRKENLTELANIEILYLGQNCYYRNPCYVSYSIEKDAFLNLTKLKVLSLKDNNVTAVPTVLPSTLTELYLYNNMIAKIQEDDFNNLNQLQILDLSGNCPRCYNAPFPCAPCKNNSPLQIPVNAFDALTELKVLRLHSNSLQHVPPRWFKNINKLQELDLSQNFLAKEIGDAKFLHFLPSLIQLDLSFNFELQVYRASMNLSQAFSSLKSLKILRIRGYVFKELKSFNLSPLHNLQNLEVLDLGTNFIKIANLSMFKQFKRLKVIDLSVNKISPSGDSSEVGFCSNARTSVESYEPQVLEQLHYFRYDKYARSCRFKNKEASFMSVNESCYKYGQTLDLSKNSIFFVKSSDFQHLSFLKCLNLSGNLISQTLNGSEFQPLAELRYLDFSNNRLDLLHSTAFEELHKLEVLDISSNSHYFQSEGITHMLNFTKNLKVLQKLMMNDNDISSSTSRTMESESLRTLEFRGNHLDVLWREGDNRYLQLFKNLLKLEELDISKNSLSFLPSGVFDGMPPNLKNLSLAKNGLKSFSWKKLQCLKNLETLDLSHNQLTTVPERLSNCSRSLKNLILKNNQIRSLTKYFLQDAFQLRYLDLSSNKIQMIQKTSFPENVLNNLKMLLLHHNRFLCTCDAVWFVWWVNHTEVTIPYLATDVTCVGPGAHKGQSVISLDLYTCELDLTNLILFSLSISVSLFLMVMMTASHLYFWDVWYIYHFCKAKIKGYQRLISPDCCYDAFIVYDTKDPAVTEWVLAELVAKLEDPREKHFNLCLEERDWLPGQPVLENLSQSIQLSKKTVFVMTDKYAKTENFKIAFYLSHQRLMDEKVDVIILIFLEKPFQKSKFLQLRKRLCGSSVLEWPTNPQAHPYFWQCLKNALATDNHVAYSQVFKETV
The experiment in a line: TLR7 inhibition reporter assay (HEK-Blue SEAP). Conditions: HEK-Blue cells overexpressing human TLR7, stimulated with gardiquimod 7.5 μM, 22 hour incubation. The method, boiled down:
as §1

For orientation: pIC50 means −log10 of the IC50, conventionally taken in molar units. The low end stands for a high IC50, the high end for a low IC50. For `Cc1cc(-c2cc3[nH]nc(C4CCC(N5CCC5)CC4)c3cc2C(C)C)cn2ncnc12` (single isomer, unassigned) [Example 139, 6-(3-(4-(azetidin-1-yl)cyclohexyl)-5-isopropyl-1H-indazol-6-yl)-8-methyl-[1,2,4]triazolo[1,5-a]pyridine], the pIC50 at human TLR9 is 5.20; on human TLR8, 10.00; against human TLR7, 8.92.

With `COc1cc(-c2cc3[nH]nc(C4CCC(N(C)C)CC4)c3cc2C(C)C)cn2ncnc12` (single isomer, unassigned) [Example 140, 4-(5-isopropyl-6-(8-methoxy-[1,2,4]triazolo[1,5-a]pyridin-6-yl)-1H-indazol-3-yl)-N,N-dimethylcyclohexan-1-amine], the figures for the pIC50 against human TLR9, on human TLR8 and on human TLR7 were 5.46, 10.00 and 9.70, respectively.

As for `COc1cc(-c2cc3[nH]nc(C4CCC(N(C)C)CC4)c3cc2C(C)C)cn2ncnc12` (single isomer, unassigned) [Example 141, 4-(5-isopropyl-6-(8-methoxy-[1,2,4]triazolo[1,5-a]pyridin-6-yl)-1H-indazol-3-yl)-N,N-dimethylcyclohexan-1-amine], the pIC50 is 5.43 on human TLR9, 8.54 on human TLR8 and 8.28 against human TLR7.

For the molecule `Cc1cc(-c2cc3[nH]nc(C4CCC(N5CC6(C5)CS(=O)(=O)C6)CC4)c3cc2C(C)C)cn2ncnc12` (single isomer, unassigned) [Example 142, 6-(4-(5-isopropyl-6-(8-methyl-[1,2,4]triazolo[1,5-a]pyridin-6-yl)-1H-indazol-3-yl)cyclohexyl)-2-thia-6-azaspiro[3.3]heptane 2,2-dioxide], the pIC50 was 5.01 against human TLR9, 9.70 at human TLR8 and 8.89 against human TLR7.

Consider `Cc1cc(-c2cc3[nH]nc(C4CCC(N5CC6(C5)CS(=O)(=O)C6)CC4)c3cc2C(C)C)cn2ncnc12` (single isomer, unassigned) [Example 143, 6-(4-(5-isopropyl-6-(8-methyl-[1,2,4]triazolo[1,5-a]pyridin-6-yl)-1H-indazol-3-yl)cyclohexyl)-2-thia-6-azaspiro[3.3]heptane 2,2-dioxide], for which the pIC50 is 5.17 at human TLR9, 8.82 against human TLR8 and 8.46 against human TLR7.

Take `COc1cc(-c2cc3[nH]nc(C4CCC(N5CC(OC)C5)CC4)c3cc2C(C)C)cn2ncnc12` (single isomer, unassigned) [Example 147, 6-(5-isopropyl-3-(4-(3-methoxyazetidin-1-yl)cyclohexyl)-1H-indazol-6-yl)-8-methoxy-[1,2,4]triazolo[1,5-a]pyridine]: the pIC50 on human TLR9 is 4.88; on human TLR8, 9.70; against human TLR7, 9.40.

In the case of `COc1cc(-c2cc3[nH]nc(C4CCC(N5CC(OC)C5)CC4)c3cc2C(C)C)cn2ncnc12` (single isomer, unassigned) [Example 148, 6-(5-isopropyl-3-(4-(3-methoxyazetidin-1-yl)cyclohexyl)-1H-indazol-6-yl)-8-methoxy-[1,2,4]triazolo[1,5-a]pyridine], the pIC50 on human TLR9 was 5.19; on human TLR8, 7.50; against human TLR7 it was 8.89.

`CCOC1CN(C2CCC(c3n[nH]c4cc(-c5cc(C)c6ncnn6c5)c(C(C)C)cc34)CC2)C1` (single isomer, unassigned) [Example 149, 6-(3-(4-(3-ethoxyazetidin-1-yl)cyclohexyl)-5-isopropyl-1H-indazol-6-yl)-8-methyl-[1,2,4]triazolo[1,5-a]pyridine]: the values for the pIC50 against human TLR9, against human TLR8 and against human TLR7 were 5.13, 9.40 and 9.10, respectively.

As to `CCOC1CN(C2CCC(c3n[nH]c4cc(-c5cc(C)c6ncnn6c5)c(C(C)C)cc34)CC2)C1` (single isomer, unassigned) [Example 150, 6-(3-(4-(3-ethoxyazetidin-1-yl)cyclohexyl)-5-isopropyl-1H-indazol-6-yl)-8-methyl-[1,2,4]triazolo[1,5-a]pyridine], the pIC50 against human TLR9 was 5.16; at human TLR8, 10.00; at human TLR7, 8.77.

On to `Cc1cc(-c2cc3[nH]nc(C4CCC(N5CC(OC(C)C)C5)CC4)c3cc2C(C)C)cn2ncnc12` (single isomer, unassigned) [Example 161, 6-(3-(4-(3-isopropoxyazetidin-1-yl)cyclohexyl)-5-isopropyl-1H-indazol-6-yl)-8-methyl-[1,2,4]triazolo[1,5-a]pyridine], for which the negative logarithm of the IC50 (pIC50) is 5.08 against human TLR9, 9.30 against human TLR8 and 8.19 at human TLR7.

For the molecule `Cc1cc(-c2cc3[nH]nc(C4CCC(N5CC(OC(C)C)C5)CC4)c3cc2C(C)C)cn2ncnc12` (single isomer, unassigned) [Example 162, 6-(3-(4-(3-isopropoxyazetidin-1-yl)cyclohexyl)-5-isopropyl-1H-indazol-6-yl)-8-methyl-[1,2,4]triazolo[1,5-a]pyridine], the pIC50 against human TLR9 was 5.07; against human TLR8 it was 9.15; against human TLR7, 8.82.
